Melting point data for 64 compounds are collected here from a melting point compilation (Tetko et al.; mined from patent text by program, amines drawn as free bases though some values may be those of a salt).

Where only a bound is given, the exact number is not on record here.

`O=C(NCc1ccc(Cl)cc1)c1cnc2ccc(I)cn2c1=O` displayed a melting point of 191 to 194 °C.
Then `CC(C)(C)NC(=O)c1nn(-c2ccc(F)cc2)c2c1C1CC3CC(C1)CC2C3`, with 214 to 216 °C.
As for `CCCCCCCCn1c(C)cc2ccccc21`, the figure is 121 to 123 °C.
`COc1ccc(/C=C/c2nc3c([nH]2)c(=O)n(C)c(=O)n3C)cc1Br`: the melting point is > 280 °C.
The compound `CCC(OC)c1c(Br)c(Oc2ncnc3[nH]nnc23)c(OC)c(C)c1C(C)C` (centres undefined) came in with a melting point of 149 to 150 °C.
On to `Cn1cc(C(=O)O)c(=O)c2cc3cc(F)c(N4CCNC(c5ccc(OCCO)cc5)C4)c(F)c3nc21` (racemic), for which the melting point was 226 to 228 °C.
As for `C[C@H]1C[C@@H](Oc2cccc(NC(=O)c3ccc(F)cc3Cl)c2)CCN1C` (relative stereo), the figure is 152 °C; as for `CNc1nc(Cc2ccc(OC)c(OC)c2)nc2sc(C#N)c(C)c12`, 161 to 163 °C.
As to `CCCCOCCOc1ccc(-c2ccc(N3CCC4(C3)OCCO4)c(C=C(C)C(=O)O)c2)cc1`, the melting point was 130 to 132 °C.
As for `CSC(=NCC(C)C)Nc1cc(Cl)cc(Cl)c1`, the figure is 150 °C.
As for `Cc1nc2ccc(OC(F)(F)F)cc2[nH]1`, the melting point lay within 135 to 137 °C.
`c1ccc2c3c([nH]c2c1)CCS3` returned a melting point of 152 to 155 °C.
For `O=C(Cn1c(-c2ccc(Cl)cc2)nc2cccnc21)NC1=NCCS1`, the melting point is 227 to 229 °C.
Then `O=C(O)C(OCCC1CCN(c2ccncc2)CC1)Oc1ccccc1` (centres undefined), with 247 to 249 °C; and `CCNC(=O)c1ccccc1NS(=O)(=O)C(F)(F)F`, with 85.5 to 87 °C.
For `CCCn1cnc(C(N)=O)c1N`, the melting point is 241 to 243 °C.
Then `CC(=O)SCc1ccc([N+](=O)[O-])cc1[N+](=O)[O-]`, with 78 to 79 °C; and `CC(=O)Nc1ccsc1C(=O)c1ccccc1`, with 93 to 95 °C.
With `Brc1ccc2c(c1)N=C(NCc1cccnc1)c1ccccc1N2`, the melting point was in the range of 152 to 155 °C.
In turn, `CCOC(=O)C1=C(CO)NC(C)=C(C(=O)OCCOCc2ccccc2)C1c1ccccc1[N+](=O)[O-]` (centres undefined) registered a melting point of 96 to 97 °C.
Regarding `Nc1cc(N2C(=O)CCc3ccccc32)ccn1`, the melting point lay in the range of 204 to 205 °C.
The compound `COc1nc(NCn2nnc3ccccc32)nc(N(C)C)n1` displayed a melting point of 222 to 224 °C.
Compound `COc1cc(Nc2ncc([N+](=O)[O-])c(-c3ccccc3)n2)cc(OC)c1OC` showed a melting point of 103 to 105 °C.
`COC(=O)c1cc(Cl)cnc1OC` returned a melting point of 79 to 81 °C.
As for `CCCc1c(C(=O)N(C)C)c2ccc(C(N)=O)cc2n1Cc1ccccc1Cl`, the figure is 213 to 214 °C; as for `CN1CC(CCCl)Oc2ccc(Br)cc2C1=O` (centres undefined), 92 to 94 °C.
`CC1(C)OC(=S)Nc2ccc(-c3ccc(F)cc3)cc21` returned a melting point of 221 to 223 °C.
As for `Cc1ccc(C(O[Si](C)(C)C(C)(C)C)C(=O)NO)cc1` (centres undefined), the figure is 109 to 111 °C.
For `CN(C(=O)CCS(C)=O)c1nnc(-c2cccnc2)s1` (centres undefined), the melting point was in the range of 138 to 140 °C.
Compound `O=C1CCc2ccc(NC(=O)c3cc4cccnc4n3Cc3cccc(F)c3)cc2N1` yielded a melting point of 280 to 282 °C.
The compound `CSC(=N[N+](=O)[O-])NCc1ccccc1` had a melting point of 77 to 80 °C.
The compound `Cc1cc(C(F)(F)F)nc2nc(N)ccc12` yielded a melting point of 255 to 257 °C.
Consider `COc1ccc2c(c1)C(=O)C(=O)C1=C2OC2(CCN(CC(O)Cc3ccccc3)CC2)CS1` (centres undefined), for which the melting point lay in the range of 146 to 147 °C.
Then `COc1ccc(C2=NC(C#N)CN2c2ccc(OCc3ccccc3)cc2)cc1` (centres undefined), with 121 to 122 °C; and `C=CC(=O)NCNC(=O)CCS(=O)(=O)CCCl`, with 186 to 187 °C; and `CCc1cnc(N2CCC(c3nc4cc(-c5ccc(-n6cnnn6)cc5F)ccc4o3)CC2)nc1`, with 188 to 192 °C.
In turn, `O=C(OCC(Cn1cnc2c(Cl)nc3ccccc3c21)OC(=O)c1ccccc1)c1ccccc1` (centres undefined) displayed a melting point of 162 to 165 °C.
Then `Cc1oc(-c2ccc(C(F)(F)F)cc2)nc1-c1cccc(-c2ccc(OCC(=O)O)cc2)c1`, with 178 to 179 °C; and `N=C(N)NCCc1nccs1`, with 130 to 135 °C.
Compound `O=C(O)COc1cc(Cl)ccc1C(=O)NCc1cccc(F)c1` had a melting point of 155 °C.
In the case of `COc1ncccc1Nc1c(NC(NC(=O)c2ccc(Cl)cc2)C(C)(C)C)c(=O)c1=O` (centres undefined), the melting point is 239 to 241 °C.
Take `O=C(O)c1cccc(-n2ncc3c2CCc2ccccc2-3)c1`: the melting point lay within 273 to 275 °C.
Compound `CC(C)CC(=O)Nc1cccc(-c2ccnc3c(-c4cccc(C(F)(F)F)c4)cnn23)c1` registered a melting point of 170 to 173 °C.
The compound `COc1cc(Nc2nccc(-c3ccc(NCCCCO)nc3)n2)cc(OC)c1OC` displayed a melting point of 170 to 171 °C.
Compound `Fc1cc2c(Nc3ccc(Cl)c(Br)c3)ncnc2cn1` gave a melting point of 271 to 275 °C.
In turn, `O=C1Nc2ccccc2C1CCCCN1CCN(c2ccc(Cl)cc2)CC1` (centres undefined) displayed a melting point of 136 to 137 °C.
On to `Nc1c(Br)cc(C(=O)CCC(=O)O)cc1Br`, for which the melting point lay in the range of 200 to 202 °C.
As for `COCCOc1ccc(/C=C/C(=O)NS(=O)(=O)c2ccc(C)cc2)c(Oc2ncc(C(F)(F)F)cc2Cl)c1`, the figure is 102 to 106 °C; as for `O=NCNC1=Nc2sc(Cl)cc2C(c2ccccc2)=NC1`, 108 to 110 °C.
For the compound `Cc1cc(C(=O)O)cc(C)c1C(=O)O`, the melting point is > 300 °C.
In the case of `COC(=O)C1=C(C)NC(C)=C(C(=O)OCCN2CCN(C(c3ccc(Cl)cc3)c3ccc(Cl)cc3)CC2)C1c1cccc([N+](=O)[O-])c1` (centres undefined), the melting point fell in the range of 83 to 87 °C.
The compound `O=C(Nc1cc(F)cc(F)c1)c1ccccn1` displayed a melting point of 111 to 113 °C.
The compound `O=C(O)Cc1cc(Cl)c(Cl)cc1[N+](=O)[O-]` gave a melting point of 119 to 120 °C.
`O=C(O)C=Cc1ccc(NC(=O)CCCCCNC(=O)OCc2ccccc2)cc1` showed a melting point of 142 to 144 °C.
As for `CCCNC(=O)C1=C(C(=O)Nc2cc(OC3CCCC3)c(Cl)cc2F)CCCC1`, the melting point lay in the range of 138 to 140 °C.
Regarding `COC(=O)c1cccc2c1Nc1ccc(I)cc1C2`, the melting point lay in the range of 122 to 124 °C.
In turn, `Cc1c(-c2ccccc2)oc2c(OCCCCCBr)cccc2c1=O` gave a melting point of 75 to 76 °C.
`CC1=C(Cl)C(c2ccccc2)C([N+](=O)[O-])=C(C)N1` (centres undefined) displayed a melting point of 192 °C.
With `Cc1nn(-c2c(Cl)cc(C(F)(F)F)cc2Cl)c(N)c1C#C[Si](C)(C)C`, the melting point is 121 to 123 °C.
As for `COc1ccc(CCNC(=O)CCCCC(=O)NCCc2ccc(OC)c(OC)c2Cl)c(Cl)c1OC`, the figure is 159 to 161 °C.
Then `CCCC[C@H](NC(=O)CC[C@H](C)CNC(=O)COc1ccccc1)C(=O)CS(=O)(=O)Cc1ccco1`, with 120 to 121 °C; and `Clc1ccc2c(c1)-c1[nH]ncc1CS2`, with 205 to 206 °C.
As for `CC1CC(C(=O)Nc2ccccc2)(C(=O)OC(C)(C)C)N(C(=O)CNC(=O)OC(C)(C)C)C1c1ccccc1` (centres undefined), the figure is 182 °C; as for `CC(=O)c1ccc(Nc2cccc(-c3ccccn3)c2)c(N)c1`, 145 to 146 °C.
